Source: publication PMC4904246 (Journal of Medicinal Chemistry, 2016)
≈ marks a conversion by molar mass, not a printed value. Like-named read-outs stand apart in the source and are kept apart here. Marks after values point to notes of the source that are not given here.

Experiments:
[1] = cited from earlier work
[2] = rat plasma; cited from earlier work
[3] = plasma; cited from earlier work
hERG K+ channel = hERG K+ channel (Homo sapiens, UniProt Q12809); conditions: human, plasma
[4] = scaled; cited from earlier work
[5] = tested on: P. falciparum Pf3D7_0087/N9 parasites; conditions: cited from earlier work
[6] = cited from earlier work; remark: listed apart in the source
[7] = scaled; cited from earlier work; remark: listed apart in the source
[8] = mouse plasma; cited from earlier work
[9] = fed state simulated intestinal fluid, pH 5.8 (footnote c); cited from earlier work
P. falciparum 3D7 cells = conditions: read-out: EC50 Pf3D7 cells; previous reports; 2 from 15, 3 from 16; cited from earlier work
[10] = pH 6.5, 30 min at room temperature; cited from earlier work
PvDHODH [11] = molecular target: T1, PvDHODH (Plasmodium vivax, UniProt A5K1N1); conditions: read-out: PvDHODH IC50; previous reports; 2 from 15, 3 from 16; cited from earlier work
T1 sequence (A5K1N1 160-572): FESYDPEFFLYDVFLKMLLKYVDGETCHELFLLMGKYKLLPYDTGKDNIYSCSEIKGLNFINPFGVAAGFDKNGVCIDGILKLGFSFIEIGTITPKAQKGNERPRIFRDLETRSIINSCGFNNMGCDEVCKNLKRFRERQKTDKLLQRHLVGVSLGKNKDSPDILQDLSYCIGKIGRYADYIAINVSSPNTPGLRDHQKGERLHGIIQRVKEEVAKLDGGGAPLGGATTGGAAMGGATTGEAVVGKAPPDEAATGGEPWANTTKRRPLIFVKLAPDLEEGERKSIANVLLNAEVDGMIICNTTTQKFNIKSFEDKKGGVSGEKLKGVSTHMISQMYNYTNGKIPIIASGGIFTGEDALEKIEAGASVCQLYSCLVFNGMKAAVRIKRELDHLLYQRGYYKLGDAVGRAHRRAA

hDHODH [12] = molecular target: T2, hDHODH (Homo sapiens, UniProt Q02127); conditions: read-out: hDHODH IC50; previous reports; 2 from 15, 3 from 16; cited from earlier work
T2 sequence (Q02127 31-395 limits assumed): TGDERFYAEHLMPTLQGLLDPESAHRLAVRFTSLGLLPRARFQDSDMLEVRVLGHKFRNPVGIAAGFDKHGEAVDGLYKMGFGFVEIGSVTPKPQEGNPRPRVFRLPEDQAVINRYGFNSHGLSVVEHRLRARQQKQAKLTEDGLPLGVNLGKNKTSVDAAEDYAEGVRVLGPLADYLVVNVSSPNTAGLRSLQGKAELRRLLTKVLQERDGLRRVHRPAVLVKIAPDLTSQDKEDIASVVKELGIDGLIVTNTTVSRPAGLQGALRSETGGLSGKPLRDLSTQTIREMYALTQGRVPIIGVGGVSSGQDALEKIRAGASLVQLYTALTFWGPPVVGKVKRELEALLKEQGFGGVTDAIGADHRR

in vivo = conditions: Sprague-Dawley, rat, plasma, iv
[13] = kinetic aqueous solubility by nephelometry; format: physicochemical
[14] = in vitro metabolism, rat liver microsomes; format: in vitro ADME; conditions: from rat microsomal CLint using physiological scaling factors
[15] = in vitro metabolism, human liver microsomes; format: in vitro ADME
[16] = plasma protein binding by ultracentrifugation, human plasma; format: in vitro ADME
[17] = plasma protein binding by ultracentrifugation, mouse plasma; format: in vitro ADME
[18] = in vitro metabolism, mouse liver microsomes; format: in vitro ADME
dog DHODH = dog DHODH (Canis lupus familiaris, UniProt A0A8I3MWX2); assay: biochemical
Sequence of dog DHODH (A0A8I3MWX2 1-406): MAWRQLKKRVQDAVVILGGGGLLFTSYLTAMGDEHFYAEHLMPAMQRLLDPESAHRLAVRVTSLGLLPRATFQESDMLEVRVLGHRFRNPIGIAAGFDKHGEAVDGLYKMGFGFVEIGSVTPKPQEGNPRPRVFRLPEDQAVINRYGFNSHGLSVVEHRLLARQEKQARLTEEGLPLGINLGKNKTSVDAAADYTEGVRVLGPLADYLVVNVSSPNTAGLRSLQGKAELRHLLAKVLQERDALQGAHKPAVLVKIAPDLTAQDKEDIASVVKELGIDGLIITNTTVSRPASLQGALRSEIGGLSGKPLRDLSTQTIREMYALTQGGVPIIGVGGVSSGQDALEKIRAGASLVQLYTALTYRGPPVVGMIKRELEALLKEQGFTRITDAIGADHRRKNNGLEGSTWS

PvDHODH [19] = molecular target: T1, PvDHODH; conditions: PvDHODH IC50 higher than PfDHODH IC50
[20] = plasma protein binding by ultracentrifugation, rat plasma; format: in vitro ADME
hDHODH [21] = molecular target: T2, hDHODH; conditions: read-out: DHODH IC50 human; Table 2; for 1 four independent replicates
hDHODH [22] = molecular target: T2, hDHODH; assay: biochemical
[23] = 1 QD, converted to different units
[24] = human, pooled human liver microsomes

Sequence of hERG K+ channel (Q12809 whole entry): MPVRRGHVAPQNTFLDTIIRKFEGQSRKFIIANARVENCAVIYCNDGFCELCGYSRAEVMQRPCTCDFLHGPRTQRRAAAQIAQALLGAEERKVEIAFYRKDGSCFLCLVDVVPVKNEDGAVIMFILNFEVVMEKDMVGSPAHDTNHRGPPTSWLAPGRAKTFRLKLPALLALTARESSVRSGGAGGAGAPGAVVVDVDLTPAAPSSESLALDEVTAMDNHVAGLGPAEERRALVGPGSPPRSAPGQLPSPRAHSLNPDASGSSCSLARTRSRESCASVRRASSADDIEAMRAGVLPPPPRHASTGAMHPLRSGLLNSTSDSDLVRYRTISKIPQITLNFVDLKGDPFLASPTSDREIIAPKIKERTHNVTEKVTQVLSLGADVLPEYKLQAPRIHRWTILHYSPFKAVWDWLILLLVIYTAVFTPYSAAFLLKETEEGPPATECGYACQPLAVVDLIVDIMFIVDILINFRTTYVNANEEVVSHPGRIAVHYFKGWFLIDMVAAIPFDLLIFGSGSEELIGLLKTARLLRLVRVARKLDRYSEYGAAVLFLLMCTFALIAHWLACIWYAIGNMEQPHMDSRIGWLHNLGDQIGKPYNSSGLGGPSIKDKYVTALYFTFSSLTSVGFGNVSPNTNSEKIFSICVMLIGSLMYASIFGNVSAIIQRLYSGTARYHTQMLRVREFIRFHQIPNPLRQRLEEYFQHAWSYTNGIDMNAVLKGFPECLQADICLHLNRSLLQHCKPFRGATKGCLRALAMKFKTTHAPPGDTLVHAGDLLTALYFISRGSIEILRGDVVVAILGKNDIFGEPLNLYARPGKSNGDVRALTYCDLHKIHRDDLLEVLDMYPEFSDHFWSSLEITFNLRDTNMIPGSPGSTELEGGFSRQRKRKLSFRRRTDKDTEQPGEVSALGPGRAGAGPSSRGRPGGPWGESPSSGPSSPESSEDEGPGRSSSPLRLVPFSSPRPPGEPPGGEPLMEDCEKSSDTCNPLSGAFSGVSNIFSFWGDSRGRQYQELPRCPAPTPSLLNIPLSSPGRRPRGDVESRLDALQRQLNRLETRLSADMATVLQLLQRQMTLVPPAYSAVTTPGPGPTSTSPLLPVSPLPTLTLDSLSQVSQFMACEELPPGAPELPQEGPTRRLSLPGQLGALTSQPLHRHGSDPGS

Cc1cc(Nc2ccc(S(F)(F)(F)(F)F)cc2)n2nc(C(C)(F)F)nc2n1 [Compound 1, 2-(1,1-difluoroethyl)-5-methyl-N-[4-(pentafluoro-λ^6-sulfanyl)phenyl]-[1,2,4]triazolo[1,5-a]pyrimidin-7-amine]
in vitro CLint rat ([1]; rat liver microsomes): 1.8 μL/min/mg protein
predicted in vivo CLint rat ([1]; rat, scaled): 3.1 mL/min/kg
PPB rat (% bound) [2]: 97.7 % bound
PPB human (% bound) [3]: 99.9 % bound
unbound plasma concentration at likely therapeutic doses lower than the IC50 for hERG channel inhibition (hERG K+ channel): 70–320 fold
predicted in vivo CLint mouse [4]: 7.2 mL/min/kg
ED90 ([5]; 1, QD dosing): 8.1 mg/kg
AUCED90 [5, 23]: 45.7 μM·h/day
ED90 [5, 23]: 8.1 mg/kg/day
apparent T1/2 ([6]; rat IV […], […]): 13 h
oral BA ([6]; rat): 57%
predicted in vivo CLint human [7]: 3.5 mL/min/kg
PPB mouse (% bound) [8]: 99.7 % bound
solubility FeSSIF pH 5.8 [9]: 27.6 ^c μg/mL

Cc1cc(Nc2ccc3ccccc3c2)n2ncnc2n1 [Compound 2, (5-methyl[1,2,4]triazolo[1,5-a]pyrimidin-7-yl)naphthalen-2-ylamine]
EC50 (P. falciparum 3D7 cells): 0.068 µM
predicted in vivo CLint mouse [4]: 591 mL/min/kg
kinetic solubility pH 6.5 [10]: 12.5–25 μg/mL
predicted in vivo CLint human [7]: 79 mL/min/kg
IC50 (PvDHODH [11]): 0.23 µM
IC50 (hDHODH [12]): > 100 µM

Cc1cc(NC2CCc3cc(Br)ccc3C2)n2nc(C(C)(F)F)nc2n1 (stereo not shown) [Compound 11, 2-(1,1-Difluoroethyl)-N-(6-bromo-1,2,3,4-tetrahydronaphthalen-2-yl)-5-methyl-[1,2,4]triazolo[1,5-a]pyrimidin-7-amine]
clearance (in vivo): 2.8 mL/min/kg
kinetic solubility pH 6.5 ([13]; pH 6.5, range following 30 min at room temperature): 3.1–6.3 μg/mL
predicted in vivo CLint rat [14]: 19 mL/min/kg
predicted in vivo CLint human ([15]; from human microsomal CLint using physiological scaling factors): < 5.8 mL/min/kg
in vitro CLint human ([15]; human liver microsomes): < 7 μL/min/mg protein
PPB human (% bound) [16]: 99.0 % bound
PPB mouse (% bound) ([17]; mouse plasma, ultracentrifugation): 99.2 % bound
predicted in vivo CLint mouse ([18]; from mouse microsomal CLint using physiological scaling factors): 67 mL/min/kg
in vitro CLint mouse ([18]; mouse liver microsomes): 26 μL/min/mg protein
IC50 (dog DHODH): > 100 µM
difference of IC50 P. vivax DHODH versus PfDHODH (PvDHODH [19]): 5–8 fold
PPB rat (% bound) [20]: 99.7 % bound

Cc1cc(NC2CCc3ccc(Br)cc3C2)n2nc(C(C)(F)F)nc2n1 (stereo not shown) [Compound 13, 2-(1,1-Difluoroethyl)-N-(7-bromo-1,2,3,4-tetrahydronaphthalen-2-yl)-5-methyl-[1,2,4]triazolo[1,5-a]pyrimidin-7-amine]
clearance (in vivo): 22.4 mL/min/kg
solubility kinetic at 30 min ([13]; pH 6.5 phosphate buffer, pH 6.5): 1.6 to 3.1 µg/mL (≈ 3.79 to 7.34 µM)
IC50 (hDHODH [21]): > 100 µM
CLint scaled at 1 μM [15, 24]: < 5.8 mL/min/kg
microsomal CLint at 1 μM [15, 24]: < 7 µL/min/mg
PPB human (% bound) [16]: 96.3 % bound
mouse PPB (% bound) ([17]; approximation based on rat and human plasma protein binding data): 97.2 ^c % bound
IC50 (hDHODH [22]): > 100 µM
IC50 (dog DHODH): > 100 µM
difference of IC50 P. vivax DHODH versus PfDHODH (PvDHODH [19]): 1.5–3 fold
PPB rat (% bound) [20]: 97.2 % bound
